Earlier results as cited in US20100092556A1, “ALFUZOSIN FORMULATIONS, METHODS OF MAKING, AND METHODS OF USE” (priority 2006, published 2010).
Structures can show the parent of a compound that is named as a salt.

Legend:
[1] = oral administration

solubility in alcohol	solubility in dichloromethane	solubility in water	administered dose excreted unchanged in the urine [1]	SMILES
sparingly soluble	practically insoluble	freely soluble	–	COc1cc2nc(N(C)CCCNC(=O)C3CCCO3)nc(N)c2cc1OC (racemic) [Alfuzosin hydrochloride, (R,S)—N-[3-[(4-amino-6,7-dimethoxy-2-quinazolinyl)methylamino]propyl]tetrahydro-2-furancarboxamide hydrochloride]
–	–	–	11%	COc1cc2nc(N(C)CCCNC(=O)C3CCCO3)nc(N)c2cc1OC (racemic) [alfuzosin, (R,S)—N-[3-[(4-amino-6,7-dimethoxy-2-quinazolinyl)methylamino]propyl]tetrahydro-2-furancarboxamide]
